Data: patent US20170079966A1, “INHIBITION OF TUMOR CELL INTERACTIONS WITH THE MICROENVIRONMENT RESULTING IN A REDUCTION IN TUMOR GROWTH AND DISEASE PROGRESSION” (Deciphera Pharmaceuticals, LLC, priority 2014, published 2017)

Assays:
[1] = tested on: PyMT mammary tumor; experiment: PyMT syngeneic breast cancer model; type: in vivo, mice
Protocol: Female FVB/NJ mice were implanted in the 4th mammary fat pad with one million cells that had been dissociated from tumor fragments from MMTV-PyMT donor mice. […] Mice (n=10/group) were dosed for three weeks, then, primary tumor and lungs were collected and fixed. Lung sections were stained with H&E at Premier Laboratory. Lung metastases (≧10 cells) were counted manually via microscopy. Data were analyzed via one-way analysis of variance (ANOVA), with post-hoc analysis by the method of Holm-Sidak. For analysis of TIE2-positive macrophages, tumor sections were stained with TIE2 and CD31 antibodies at Premier Laboratory. The density of TIE2-positive cells at the stroma/tumor boundary in each tumor was scored using 0=no staining, 1=low, 2=medium, and 3=high.

[2] = tested on: GSC17 glioblastoma cells; experiment: GSC17 glioma stem cell patient-derived xenograft model (tumor volume, immunohistochemistry); type: in vivo, mice
Protocol: For the in vivo experiments, 4- to 6-week-old female nude mice that were strictly inbred at The University of Texas MD Anderson Cancer Center and maintained in the MD Anderson Veterinary in accordance with institutional guidelines were used. For the in vivo experiments, GSC11 (5×10^5) or GSC17 (5×10^4) glioblastoma cells were implanted intracranially into nude mice. […] Control mice for these cohorts were treated with phosphate-buffered saline by i.p. injection and/or with 0.4% HPMC vehicle by oral gavage. One cohort of 10 mice per group were treated continuously and followed for survival. A separate cohort of 9 mice per group were treated continuously until the designated time point, and the tumors from these mice were extracted at 3, 4, 5 weeks in GSC11 xenograft mice model and at 3.5, 4.5, 5.5 weeks in GSC17 xenograft mice model after the start of treatment.
When the mice treated for the designated time period developed signs and symptoms of advanced tumors, they were euthanized, and their brains were removed, fixed in 4% formaldehyde for 24 hours, and embedded in paraffin. The tissues were then sectioned serially (4 μm) and stained with hematoxylin and eosin (Sigma-Aldrich). Tumor formation and phenotype were determined by histologic analysis of the hematoxylin- and eosin-stained sections. The tumor volume, greatest longitudinal diameter (length), and greatest transverse diameter (width) were measured using an external caliper and Adobe Illustrator software. The tumor volumes were calculated by the following formula: volume=½(length×width^2).
For immunohistochemical analyses, the tissue sections were deparaffinized and subjected to graded rehydration. After blocking the tissue in 5% horse and goat serum and antigen retrieval solution (citrate buffer, pH 6.0), we incubated the tissue sections overnight at 4° C. with primary antibodies against Factor VIII (1:500; A0082, Dako) to assess microvessel formation, vimentin (1:100; M0725, Dako) to assess mesenchymal marker expression, F4/80 (1:50; 123102, BioLegend) to assess monocyte infiltration, nestin (1:300; Ab6142, Abcam) to assess glioma stem cell marker expression, HGF (1:200; LS-B4657, LSBio), and TIE2 (1:50; Santa Cruz Biotechnology) to assess TIE2-expressing monocyte infiltration. Texas red fluorescein isothiocyanate-conjugated secondary antibodies or anti-rat immunoglobulin G antibodies (Invitrogen) were used for 1 hour at room temperature.
All statistical analyses were conducted with the GraphPad 6 (InStat) software for Windows 7. Survival analysis was conducted using the Kaplan-Meier method, and differences in survival between treatment groups were assessed using the log-rank test. All other comparisons were performed using an unpaired two-tailed Student t-test. Summary statistics for continuous data are expressed as the mean±standard error of the mean. P values less than 0.05 were considered statistically significant. The nestin staining was assessed using the Image-Pro Plus system version 7.0 (Media Cybernetics) in ×10 fields of at least three tumor samples per group with three to four different sections per tumor sample.

[3] = tested on: U87-MG xenograft glioma; experiment: Orthotopic U87-MG xenograft survival model; details: bevacizumab 10 mg/kg IP twice weekly; Compound 1 10 mg/kg twice daily PO; from Day 12
Protocol: Protocol for in vivo xenograft survival study. Female nude mice were implanted intracranially with one million luciferase-enabled U87-MG cells. Treatments began on Day 12. Mice (n=10/group) were dosed until the end of study. Three additional mice were treated as above for pharmacodynamic analysis after five weeks. Brain BLI signal was determined using an IVIS 50 optical imaging system (Xenogen, Alameda, Calif.). Animals were injected IP with 150 mg/kg D-Luciferin and imaged 10 min post-injection.
Treatment began on Day 12, when the mean brain BLI signal was 5.8×10^6 photons/sec, and continued until the end of study. Mice were followed through survival.

[4] = tested on: U87-MG xenograft glioma; experiment: Orthotopic U87-MG xenograft efficacy model (BLI); type: in vivo, mice; details: after two weeks of treatment; bevacizumab 5 mg/kg IP every three days; Compound 1 10 mg/kg BID
Protocol: Protocol for in vivo xenograft efficacy study. […] Treatments began on Day 31.
The tumor cells were injected intracerebroventricularly (ICV) and tumor growth was monitored in vivo by quantitation of luciferase-mediated BLI.

[5] = target: T1, uTIE2 kinase (Homo sapiens, UniProt Q02763); experiment: Biochemical assay for uTIE2 kinase (pyruvate kinase/lactate dehydrogenase coupled); details: ATP 1.5 mM; rate 5 to 6 h; read-out: IC50, inhibition of uTIE2 kinase
T1 construct: purchased SignalChem
T1 sequence (Q02763 771-1124): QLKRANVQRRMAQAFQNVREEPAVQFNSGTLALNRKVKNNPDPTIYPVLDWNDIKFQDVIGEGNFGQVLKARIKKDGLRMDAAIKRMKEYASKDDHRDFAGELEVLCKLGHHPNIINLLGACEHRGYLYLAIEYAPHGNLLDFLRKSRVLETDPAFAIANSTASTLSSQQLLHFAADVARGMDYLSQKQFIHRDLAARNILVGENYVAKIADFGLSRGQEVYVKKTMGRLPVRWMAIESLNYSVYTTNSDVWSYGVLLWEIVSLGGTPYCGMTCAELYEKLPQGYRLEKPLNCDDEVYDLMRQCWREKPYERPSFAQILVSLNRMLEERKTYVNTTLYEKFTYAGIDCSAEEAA
Protocol: Activity of uTIE2 kinase was determined by following the production of ADP from the kinase reaction through coupling with the pyruvate kinase/lactate dehydrogenase system [Schindler 2000]. In this assay, the oxidation of NADH (thus the decrease at A340 nm) was continuously monitored spectrophotometrically. The reaction mixture (100 μL) contained TIE2 (SignalChem) (5.6 nM), BSA (0.004% (w/v)), polyEY (1.5 mg/ml), MgCl2 (15 mM), DTT (0.5 mM), pyruvate kinase (4 units), lactate dehydrogenase (7 units), phosphoenol pyruvate (1 mM), and NADH (0.28 mM) and ATP (1.5 mM) in 90 mM Tris buffer containing 0.2% octyl-glucoside and 1% DMSO, pH 7.5. […] The absorption at 340 nm was monitored continuously for 6 hours at 30° C. on a plate reader (BioTek). The reaction rate was calculated using the 5 to 6 h time frame. Percent inhibition was obtained by comparison of reaction rate with that of a control (i.e. with no test compound).

SMILES: O=C(Nc1cc(Oc2cc(F)c(NC(=O)C3(C(=O)Nc4ccc(F)cc4)CC3)cc2F)ccn1)C1CC1 [Compound 1, N-(4-(2-(cyclopropanecarboxamido)pyridin-4-yloxy)-2,5-difluorophenyl)-N′-(4-fluorophenyl)cyclopropane-1,1-dicarboxamide]
- Tumor growth inhibition (TGI) ([1]; after dosing for three weeks, paclitaxel 10 mg/kg i.v. every 5 days, Compound 1 15 mg/kg twice daily): 69%
- Reduction of TIE2 score (stromal density of TIE2+ cells) ([1]; same dosing): 50%
- Reduction of lung metastases compared to controls ([1]; same dosing): 74%
- Tumor volume at 3.5 weeks ([2]; GSC17, bevacizumab 10 mg/kg i.p. twice per week, Compound 1 10 mg/kg oral twice daily): 0.1±0.2 mm^3
- Tumor volume at 4.5 weeks ([2]; GSC17, same dosing): 9.8±3.9 mm^3
- Tumor volume at 5.5 weeks ([2]; GSC17, same dosing): 10.1±1.4 mm^3
- Factor VIII-positive area ([2]; GSC17 xenograft mouse model): 1.0±0.2%
- Nestin-positive area ([2]; GSC17 xenograft mouse model): 2.9±1.0%
- Mesenchymal tumor marker vimentin / EMT (immunohistochemistry) ([2]; GSC-17 glioma model): decreases levels of vimentin
- Tumor infiltration of TIE2-positive/F4/80-positive cells ([2]; GSC-17 glioma xenograft model): lower
- Median survival [3]: 112 days
- Decrease in BLI signal compared to vehicle [4]: 90%
- IC50 [5]: 7.9 nM
